Experimental data: ChEMBL document CHEMBL4507265 (2021)

Key:
[1] = target: 5-hydroxytryptamine receptor 5A (Homo sapiens) (UniProt P47898); conditions: Compound concentration 10.0 uM
[2] = target: Serine/threonine-protein kinase ULK1 (Homo sapiens) (UniProt O75385); conditions: Compound concentration 1000.0 nM
[3] = target: Dual specificity tyrosine-phosphorylation-regulated kinase 2 (Homo sapiens) (UniProt Q92630); conditions: Compound concentration 1000.0 nM
[4] = test system: Tyrosine-protein kinase ABL1 (Homo sapiens), P00519 [Y253F]; conditions: Compound concentration 1000.0 nM
[5] = target: STE20-like serine/threonine-protein kinase (Homo sapiens) (UniProt Q9H2G2); conditions: Compound concentration 1000.0 nM
[6] = target: Phosphatidylinositol 4,5-bisphosphate 3-kinase catalytic subunit alpha isoform (Homo sapiens) (UniProt P42336); conditions: Compound concentration 1000.0 nM
[7] = target: Protein kinase C iota type (Homo sapiens) (UniProt P41743); conditions: Compound concentration 1000.0 nM
[8] = target: Cyclin-dependent kinase 15 (Homo sapiens) (UniProt Q96Q40); conditions: Compound concentration 1000.0 nM
[9] = target: Serine/threonine-protein kinase Nek2 (Homo sapiens) (UniProt P51955); conditions: Compound concentration 1000.0 nM
[10] = target: Inhibitor of nuclear factor kappa-B kinase subunit beta (Homo sapiens) (UniProt O14920); conditions: Compound concentration 1000.0 nM
[11] = target: Vascular endothelial growth factor receptor 2 (Homo sapiens) (UniProt P35968); conditions: Compound concentration 1000.0 nM
[12] = target: Cyclin-dependent kinase 5 (Homo sapiens) (UniProt Q00535); conditions: Compound concentration 1000.0 nM
[13] = target: Epidermal growth factor receptor (Homo sapiens) (UniProt P00533); conditions: Compound concentration 1000.0 nM
[14] = target: Atypical kinase COQ8B, mitochondrial (Homo sapiens) (UniProt Q96D53); conditions: Compound concentration 1000.0 nM
[15] = target: Leucine-rich repeat serine/threonine-protein kinase 2 (Homo sapiens) (UniProt Q5S007); conditions: Compound concentration 1000.0 nM
[16] = test system: Tyrosine-protein kinase ABL1 (Homo sapiens), P00519 [F317I]; conditions: Compound concentration 1000.0 nM
[17] = target: Serine/threonine-protein kinase SBK1 (Homo sapiens) (UniProt Q52WX2); conditions: Compound concentration 1000.0 nM
[18] = target: Ephrin type-B receptor 2 (Homo sapiens) (UniProt P29323); conditions: Compound concentration 1000.0 nM
[19] = target: MAP kinase-activated protein kinase 2 (Homo sapiens) (UniProt P49137); conditions: Compound concentration 1000.0 nM
[20] = target: RAC-beta serine/threonine-protein kinase (Homo sapiens) (UniProt P31751); conditions: Compound concentration 1000.0 nM
[21] = test system: Epidermal growth factor receptor (Homo sapiens), P00533 [G719C]; conditions: Compound concentration 1000.0 nM
[22] = target: Serine/threonine-protein kinase 26 (Homo sapiens) (UniProt Q9P289); conditions: Compound concentration 1000.0 nM
[23] = target: Serine/threonine-protein kinase DCLK3 (Homo sapiens) (UniProt Q9C098); conditions: Compound concentration 1000.0 nM
[24] = target: Mitogen-activated protein kinase 14 (Homo sapiens) (UniProt Q16539); conditions: Compound concentration 1000.0 nM
[25] = target: Calcium/calmodulin-dependent protein kinase type IV (Homo sapiens) (UniProt Q16566); conditions: Compound concentration 1000.0 nM
[26] = target: Ephrin type-B receptor 6 (Homo sapiens) (UniProt O15197); conditions: Compound concentration 1000.0 nM
[27] = target: Cyclin-dependent kinase 14 (Homo sapiens) (UniProt O94921); conditions: Compound concentration 1000.0 nM
[28] = test system: Proto-oncogene tyrosine-protein kinase receptor Ret (Homo sapiens), P07949 [M918T]; conditions: Compound concentration 1000.0 nM
[29] = target: Myosin light chain kinase 2, skeletal/cardiac muscle (Homo sapiens) (UniProt Q9H1R3); conditions: Compound concentration 1000.0 nM
[30] = target: Phosphatidylinositol 3-kinase catalytic subunit type 3 (Homo sapiens) (UniProt Q8NEB9); conditions: Compound concentration 1000.0 nM
[31] = target: Misshapen-like kinase 1 (Homo sapiens) (UniProt Q8N4C8); conditions: Compound concentration 1000.0 nM
[32] = test system: Receptor-type tyrosine-protein kinase FLT3 (Homo sapiens), P36888 [UNDEFINED MUTATION]; conditions: Compound concentration 1000.0 nM
[33] = target: Cyclin-dependent kinase-like 2 (Homo sapiens) (UniProt Q92772); conditions: Compound concentration 1000.0 nM
[34] = target: Tyrosine-protein kinase TXK (Homo sapiens) (UniProt P42681); conditions: Compound concentration 1000.0 nM
[35] = target: Platelet-derived growth factor receptor beta (Homo sapiens) (UniProt P09619); conditions: Compound concentration 1000.0 nM
[36] = test system: Receptor-type tyrosine-protein kinase FLT3 (Homo sapiens), P36888 [UNDEFINED MUTATION]; conditions: Compound concentration 1000.0 nM; remark: listed apart in the source
[37] = target: Cyclin-dependent kinase 9 (Homo sapiens) (UniProt P50750); conditions: Compound concentration 1000.0 nM
[38] = target: Serine/threonine-protein kinase haspin (Homo sapiens) (UniProt Q8TF76); conditions: Compound concentration 1000.0 nM
[39] = test system: Mast/stem cell growth factor receptor Kit (Homo sapiens), P10721 [V559D,T670I]; conditions: Compound concentration 1000.0 nM
[40] = target: Serine/threonine-protein kinase NIM1 (Homo sapiens) (UniProt Q8IY84); conditions: Compound concentration 1000.0 nM
[41] = target: Calcium/calmodulin-dependent protein kinase type II subunit beta (Homo sapiens) (UniProt Q13554); conditions: Compound concentration 1000.0 nM
[42] = target: Cyclin-dependent kinase 16 (Homo sapiens) (UniProt Q00536); conditions: Compound concentration 1000.0 nM
[43] = target: Mast/stem cell growth factor receptor Kit (Homo sapiens) (UniProt P10721); conditions: Compound concentration 1000.0 nM
[44] = target: 1-phosphatidylinositol 3-phosphate 5-kinase (Homo sapiens) (UniProt Q9Y2I7); conditions: Compound concentration 1000.0 nM
[45] = target: Histamine H1 receptor (Homo sapiens) (UniProt P35367); conditions: Compound concentration 10.0 uM
Chain of Histamine H1 receptor (Homo sapiens) (P35367 whole entry): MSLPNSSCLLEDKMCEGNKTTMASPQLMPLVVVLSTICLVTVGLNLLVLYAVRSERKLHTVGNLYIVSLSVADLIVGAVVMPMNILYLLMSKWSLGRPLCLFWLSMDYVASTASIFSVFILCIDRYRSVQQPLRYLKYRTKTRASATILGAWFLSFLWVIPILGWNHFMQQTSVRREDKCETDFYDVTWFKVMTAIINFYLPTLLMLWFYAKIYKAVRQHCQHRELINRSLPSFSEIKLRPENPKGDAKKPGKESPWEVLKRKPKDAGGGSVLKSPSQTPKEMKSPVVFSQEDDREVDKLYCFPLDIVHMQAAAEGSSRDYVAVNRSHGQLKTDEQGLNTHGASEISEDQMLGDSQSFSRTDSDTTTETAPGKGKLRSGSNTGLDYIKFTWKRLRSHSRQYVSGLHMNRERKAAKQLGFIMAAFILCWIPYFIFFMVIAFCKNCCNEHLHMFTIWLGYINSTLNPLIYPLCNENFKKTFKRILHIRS

Chain of Receptor-type tyrosine-protein kinase FLT3 (Homo sapiens), P36888 [UNDEFINED MUTATION] (P36888 whole entry, looked up, change not shown): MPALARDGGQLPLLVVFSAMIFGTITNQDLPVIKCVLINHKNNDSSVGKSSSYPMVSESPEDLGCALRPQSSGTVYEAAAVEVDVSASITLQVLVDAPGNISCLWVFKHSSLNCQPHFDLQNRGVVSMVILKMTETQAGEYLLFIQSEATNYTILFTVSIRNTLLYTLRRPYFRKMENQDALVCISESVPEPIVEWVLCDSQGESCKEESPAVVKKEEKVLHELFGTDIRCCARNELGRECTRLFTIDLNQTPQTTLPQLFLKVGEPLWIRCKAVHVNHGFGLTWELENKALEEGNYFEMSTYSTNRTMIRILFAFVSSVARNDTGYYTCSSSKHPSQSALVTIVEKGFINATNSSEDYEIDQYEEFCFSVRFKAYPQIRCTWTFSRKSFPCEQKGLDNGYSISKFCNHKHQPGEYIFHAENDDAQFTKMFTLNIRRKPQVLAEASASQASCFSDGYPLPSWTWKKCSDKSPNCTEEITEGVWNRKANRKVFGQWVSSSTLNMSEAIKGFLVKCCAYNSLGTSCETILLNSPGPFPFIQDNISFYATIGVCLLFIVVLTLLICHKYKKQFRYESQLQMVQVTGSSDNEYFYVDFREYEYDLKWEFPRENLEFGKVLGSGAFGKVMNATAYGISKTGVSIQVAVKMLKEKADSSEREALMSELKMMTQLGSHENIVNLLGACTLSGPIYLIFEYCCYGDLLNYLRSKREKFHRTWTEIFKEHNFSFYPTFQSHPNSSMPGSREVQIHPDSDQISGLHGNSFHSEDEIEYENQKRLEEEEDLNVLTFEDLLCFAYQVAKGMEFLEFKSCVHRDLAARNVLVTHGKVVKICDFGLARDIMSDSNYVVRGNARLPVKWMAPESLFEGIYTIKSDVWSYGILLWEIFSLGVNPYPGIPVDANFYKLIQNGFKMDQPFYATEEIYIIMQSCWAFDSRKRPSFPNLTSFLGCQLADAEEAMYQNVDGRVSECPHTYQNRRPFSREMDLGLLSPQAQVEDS
Chain of Cyclin-dependent kinase 15 (Homo sapiens) (Q96Q40 whole entry): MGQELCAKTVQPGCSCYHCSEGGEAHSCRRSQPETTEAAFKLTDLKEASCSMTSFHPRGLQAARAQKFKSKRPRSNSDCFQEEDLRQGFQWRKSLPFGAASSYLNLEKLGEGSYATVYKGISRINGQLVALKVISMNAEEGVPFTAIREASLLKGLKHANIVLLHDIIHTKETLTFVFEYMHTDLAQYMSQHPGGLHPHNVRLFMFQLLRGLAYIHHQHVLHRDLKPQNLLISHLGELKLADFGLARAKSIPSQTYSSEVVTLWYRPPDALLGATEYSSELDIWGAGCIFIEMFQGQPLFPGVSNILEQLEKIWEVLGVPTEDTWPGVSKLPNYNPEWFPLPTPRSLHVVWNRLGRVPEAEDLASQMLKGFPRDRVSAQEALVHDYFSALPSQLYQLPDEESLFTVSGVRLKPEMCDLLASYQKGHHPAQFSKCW
Chain of Serine/threonine-protein kinase 26 (Homo sapiens) (Q9P289 2-416 limits assumed): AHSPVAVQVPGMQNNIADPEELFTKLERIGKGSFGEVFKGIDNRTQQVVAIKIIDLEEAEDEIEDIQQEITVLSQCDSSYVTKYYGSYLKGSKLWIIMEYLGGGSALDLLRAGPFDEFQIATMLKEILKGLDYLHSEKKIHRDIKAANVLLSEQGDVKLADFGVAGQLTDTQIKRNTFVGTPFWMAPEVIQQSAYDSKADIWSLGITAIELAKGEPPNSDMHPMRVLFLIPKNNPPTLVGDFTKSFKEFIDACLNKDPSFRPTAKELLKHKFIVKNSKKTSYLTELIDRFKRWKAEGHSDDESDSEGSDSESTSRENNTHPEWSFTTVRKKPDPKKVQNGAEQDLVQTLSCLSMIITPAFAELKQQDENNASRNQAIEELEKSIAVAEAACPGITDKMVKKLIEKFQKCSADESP
Chain of Serine/threonine-protein kinase haspin (Homo sapiens) (Q8TF76 whole entry): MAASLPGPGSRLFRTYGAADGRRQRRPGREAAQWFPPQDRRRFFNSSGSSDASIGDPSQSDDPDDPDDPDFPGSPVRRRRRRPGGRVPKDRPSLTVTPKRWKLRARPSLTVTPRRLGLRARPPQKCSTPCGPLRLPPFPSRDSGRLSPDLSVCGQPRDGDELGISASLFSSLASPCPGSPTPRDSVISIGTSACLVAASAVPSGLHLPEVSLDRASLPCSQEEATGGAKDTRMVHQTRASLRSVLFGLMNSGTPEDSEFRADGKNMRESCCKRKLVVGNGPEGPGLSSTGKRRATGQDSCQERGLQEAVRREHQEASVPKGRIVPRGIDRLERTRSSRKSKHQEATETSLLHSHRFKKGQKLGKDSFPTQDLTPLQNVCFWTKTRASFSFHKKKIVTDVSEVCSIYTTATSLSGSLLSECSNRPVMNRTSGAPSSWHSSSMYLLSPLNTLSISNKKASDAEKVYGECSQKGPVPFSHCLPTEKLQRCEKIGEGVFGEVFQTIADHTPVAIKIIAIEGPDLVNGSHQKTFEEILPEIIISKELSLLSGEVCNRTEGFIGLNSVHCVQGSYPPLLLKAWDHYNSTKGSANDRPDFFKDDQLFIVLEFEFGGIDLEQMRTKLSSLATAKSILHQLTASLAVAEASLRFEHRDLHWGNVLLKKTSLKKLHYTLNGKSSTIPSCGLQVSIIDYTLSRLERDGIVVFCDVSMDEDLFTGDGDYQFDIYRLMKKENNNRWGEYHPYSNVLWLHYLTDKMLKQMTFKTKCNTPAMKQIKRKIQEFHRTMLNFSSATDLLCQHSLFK
Chain of Phosphatidylinositol 3-kinase catalytic subunit type 3 (Homo sapiens) (Q8NEB9 whole entry): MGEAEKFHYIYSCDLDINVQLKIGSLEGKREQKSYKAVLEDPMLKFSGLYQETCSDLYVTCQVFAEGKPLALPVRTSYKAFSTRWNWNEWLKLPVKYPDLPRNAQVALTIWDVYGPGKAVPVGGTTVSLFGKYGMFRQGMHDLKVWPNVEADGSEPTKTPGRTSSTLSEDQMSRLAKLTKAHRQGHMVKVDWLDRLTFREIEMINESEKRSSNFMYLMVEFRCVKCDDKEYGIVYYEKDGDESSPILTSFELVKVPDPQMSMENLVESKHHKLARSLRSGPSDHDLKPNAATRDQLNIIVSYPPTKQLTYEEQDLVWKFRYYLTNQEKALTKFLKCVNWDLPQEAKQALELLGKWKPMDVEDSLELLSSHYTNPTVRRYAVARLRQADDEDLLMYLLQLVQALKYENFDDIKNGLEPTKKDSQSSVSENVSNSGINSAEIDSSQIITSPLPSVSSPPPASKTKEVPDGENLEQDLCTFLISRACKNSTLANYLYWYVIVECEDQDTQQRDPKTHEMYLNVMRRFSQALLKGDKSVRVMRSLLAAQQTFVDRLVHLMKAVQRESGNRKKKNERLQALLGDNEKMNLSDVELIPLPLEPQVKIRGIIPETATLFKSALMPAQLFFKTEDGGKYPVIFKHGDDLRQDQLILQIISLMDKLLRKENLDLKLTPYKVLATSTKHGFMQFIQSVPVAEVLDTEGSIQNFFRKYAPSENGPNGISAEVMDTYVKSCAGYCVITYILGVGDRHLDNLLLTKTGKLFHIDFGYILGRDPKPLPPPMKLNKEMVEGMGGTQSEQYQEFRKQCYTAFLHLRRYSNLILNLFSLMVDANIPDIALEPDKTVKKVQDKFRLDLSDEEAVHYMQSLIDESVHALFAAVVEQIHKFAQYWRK
Chain of Serine/threonine-protein kinase ULK1 (Homo sapiens) (O75385 whole entry): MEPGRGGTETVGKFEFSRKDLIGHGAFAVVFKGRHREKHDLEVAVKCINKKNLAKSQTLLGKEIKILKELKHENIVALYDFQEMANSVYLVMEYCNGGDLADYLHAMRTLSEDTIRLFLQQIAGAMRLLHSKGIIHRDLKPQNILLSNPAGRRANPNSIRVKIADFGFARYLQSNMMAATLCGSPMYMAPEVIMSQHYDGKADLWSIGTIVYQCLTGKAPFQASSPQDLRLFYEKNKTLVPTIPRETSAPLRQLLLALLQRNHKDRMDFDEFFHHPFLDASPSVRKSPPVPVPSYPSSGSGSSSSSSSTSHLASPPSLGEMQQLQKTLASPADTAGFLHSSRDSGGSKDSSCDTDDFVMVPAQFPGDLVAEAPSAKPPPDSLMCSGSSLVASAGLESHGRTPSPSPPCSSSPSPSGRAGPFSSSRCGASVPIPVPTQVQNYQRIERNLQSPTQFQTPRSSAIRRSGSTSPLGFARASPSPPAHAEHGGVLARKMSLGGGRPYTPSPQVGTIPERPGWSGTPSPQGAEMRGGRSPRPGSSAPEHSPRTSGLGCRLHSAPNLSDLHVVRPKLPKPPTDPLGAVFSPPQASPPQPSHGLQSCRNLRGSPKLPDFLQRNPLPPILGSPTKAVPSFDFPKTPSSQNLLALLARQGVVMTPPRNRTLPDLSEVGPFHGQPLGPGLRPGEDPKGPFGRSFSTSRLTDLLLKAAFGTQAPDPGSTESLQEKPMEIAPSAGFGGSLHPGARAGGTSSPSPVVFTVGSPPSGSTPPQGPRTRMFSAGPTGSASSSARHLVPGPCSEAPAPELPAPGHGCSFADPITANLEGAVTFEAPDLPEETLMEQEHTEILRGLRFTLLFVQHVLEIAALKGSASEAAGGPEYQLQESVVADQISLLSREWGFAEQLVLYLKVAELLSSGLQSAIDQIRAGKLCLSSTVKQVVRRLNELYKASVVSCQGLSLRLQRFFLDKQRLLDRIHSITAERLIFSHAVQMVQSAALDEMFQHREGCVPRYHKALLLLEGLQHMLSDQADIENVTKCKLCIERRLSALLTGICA

`NS(=O)(=O)c1cc(NC(=O)Cc2ccccc2)ccc1Oc1cccc(Cl)c1` [BAY-1797] gave an inhibition [1] of 1.47%, a residual activity [2] of 88% and a residual activity [3] of 100%. It also gave a residual activity [4] of 76%, a residual activity [5] of 66% and a residual activity [6] of 89%. For the same compound, the residual activity [7] was 93%, the residual activity [8] was 88% and the residual activity [9] was 89%. The residual activity [10] was 91%, the residual activity [11] was 77% and the residual activity [12] was 61%. For the same compound, the residual activity [13] was 84%, the residual activity [14] was 100% and the residual activity [15] was 72%. It also gave a residual activity [16] of 72%, a residual activity [17] of 100% and a residual activity [18] of 100%. The residual activity [19] was 100%, the residual activity [20] was 100% and the residual activity [21] was 63%. The residual activity [22] was 99%, the residual activity [23] was 92% and the residual activity [24] was 100%. It also gave a residual activity [25] of 100%, a residual activity [26] of 92% and a residual activity [27] of 95%. For the same compound, the residual activity [28] was 83%, the residual activity [29] was 81% and the residual activity [30] was 100%. For the same compound, the residual activity [31] was 90%, the residual activity [32] was 97% and the residual activity [33] was 99%. The residual activity [34] was 92%, the residual activity [35] was 76% and the residual activity [36] was 79%. For the same compound, the residual activity [37] was 92%, the residual activity [38] was 100% and the residual activity [39] was 83%. For the same compound, the residual activity [40] was 62%, the residual activity [41] was 100% and the residual activity [42] was 92%. It also gave a residual activity [43] of 89%, a residual activity [44] of 95% and an inhibition [45] of 15.7%.
Compound `NS(=O)(=O)c1cc(NC(=O)C2(c3ccccc3Cl)CC2)ccc1Oc1cccc(Cl)c1` [BAY-207] has an inhibition [1] of 5.57%, a residual activity [2] of 89% and a residual activity [3] of 81%. It also gave a residual activity [4] of 69%, a residual activity [5] of 79% and a residual activity [6] of 100%. The residual activity [7] was 98%, the residual activity [8] was 98% and the residual activity [9] was 86%. For the same compound, the residual activity [10] was 70%, the residual activity [11] was 74% and the residual activity [12] was 74%. The residual activity [13] was 75%, the residual activity [14] was 63% and the residual activity [15] was 89%. For the same compound, the residual activity [16] was 90%, the residual activity [17] was 100% and the residual activity [18] was 74%. It also gave a residual activity [19] of 90%, a residual activity [20] of 100% and a residual activity [21] of 90%. For the same compound, the residual activity [22] was 100%, the residual activity [23] was 56% and the residual activity [24] was 100%. The residual activity [25] was 43%, the residual activity [26] was 81% and the residual activity [27] was 63%. The residual activity [28] was 71%, the residual activity [29] was 73% and the residual activity [30] was 89%. For the same compound, the residual activity [31] was 86%, the residual activity [32] was 100% and the residual activity [33] was 94%. It also gave a residual activity [34] of 90%, a residual activity [35] of 90% and a residual activity [36] of 100%. It also gave a residual activity [37] of 78%, a residual activity [38] of 96% and a residual activity [39] of 85%. It also gave a residual activity [40] of 86%, a residual activity [41] of 100% and a residual activity [42] of 100%. For the same compound, the residual activity [43] was 90%, the residual activity [44] was 100% and the inhibition [45] was 17.9%.
